Here are results for 22 compounds from patent US20240018122A1, “PYRIDAZINYL AMINO DERIVATIVES AS ALK5 INHIBITORS” (CHIESI FARMACEUTICI S.P.A., priority 2020, published 2024).

Bounds are passed on as bounds.

The target of the first experiment is human ALK5 (Homo sapiens (Human), UniProt P36897). Description: ADP-GLO Kinases assay, inhibitory activity on ALK5. The class given is biochemical.
human ALK5, sequence (P36897 80-503 limits assumed): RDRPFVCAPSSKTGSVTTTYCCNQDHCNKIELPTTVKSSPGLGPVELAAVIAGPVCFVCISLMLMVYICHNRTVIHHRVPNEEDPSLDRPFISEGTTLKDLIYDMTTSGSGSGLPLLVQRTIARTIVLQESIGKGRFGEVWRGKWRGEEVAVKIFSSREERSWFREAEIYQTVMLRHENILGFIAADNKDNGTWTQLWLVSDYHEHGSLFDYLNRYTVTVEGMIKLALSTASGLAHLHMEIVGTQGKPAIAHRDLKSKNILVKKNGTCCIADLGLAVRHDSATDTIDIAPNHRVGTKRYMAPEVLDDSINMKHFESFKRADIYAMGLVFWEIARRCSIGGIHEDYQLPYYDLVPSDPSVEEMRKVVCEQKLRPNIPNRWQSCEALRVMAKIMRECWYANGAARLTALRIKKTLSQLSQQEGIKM
Conditions: not given
(In general: ADP-Glo turns the ADP formed in a reaction into a luminescent signal.)
In turn, `CN1CCC(N2CCN(C(=O)Oc3ccc4c(Nc5cnnc(-c6cc(Cl)ccc6F)c5)ccnc4c3)CC2)CC1` [Example 103, 4-{[6-(5-Chloro-2-Fluorophenyl)Pyridazin-4-Yl]Amino}Quinolin-7-Yl 4-(1-Methylpiperidin-4-Yl)Piperazine-1-Carboxylate] registered an IC50 of 1 to 5 nM.

Still in this experiment, the particulars now being: purified recombinant human ALK5 2.6 nM, TGFβ1 peptide substrate, 25° C, 150 min incubation, ADP-Glo detection; read-out: ALK5 IC50.
`Cc1nnc(-c2cc(Cl)ccc2F)cc1Nc1ccnc(NC(=O)CN2CCOCC2)c1` [Example 117, N-(4-{[6-(5-Chloro-2-Fluorophenyl)-3-Methylpyridazin-4-Yl]Amino}Pyridin-2-Yl)-2-(Morpholin-4-Yl)Acetamide]: the IC50 was less than 1 nM.
For `CN1CCC2(CC1)CCN(C(=O)Oc1ccc3c(Nc4cnnc(-c5cc(Cl)ccc5F)c4)ccnc3c1)C2` [Example 118, 4-{[6-(5-Chloro-2-Fluorophenyl)Pyridazin-4-Yl]Amino}Quinolin-7-Yl 8-Methyl-2,8-Diazaspiro[4.5]Decane-2-Carboxylate], the IC50 was less than 1 nM.
For the compound `CC(=O)N1CCN(CCC(=O)Nc2cc(Nc3cnnc(-c4cc(Cl)ccc4F)c3)ccn2)CC1` [Example 31, 3-(4-Acetylpiperazin-1-Yl)-N-(4-{[6-(5-Chloro-2-Fluorophenyl)Pyridazin-4-Yl]Amino}Pyridin-2-Yl)Propanamide], the IC50 is less than 1 nM.
On the same count and under the same terms, with `CNCCN1CCN(CC(=O)Nc2cc(Nc3cc(-c4cc(Cl)ccc4F)nnc3C)ccn2)CC1` [Example 106, N-(4-{[6-(5-Chloro-2-Fluorophenyl)-3-Methylpyridazin-4-Yl]Amino}Pyridin-2-Yl)-2-{4-[2-(Methylamino)Ethyl]Piperazin-1-Yl}Acetamide] the figure was less than 1 nM; with `CN1CCN(CCOc2ccc3c(Nc4cc(-c5cc(Cl)ccc5F)nnc4C(F)(F)F)ccnc3c2)CC1` [Example 183, N-[6-(5-Chloro-2-Fluorophenyl)-3-(Trifluoromethyl)Pyridazin-4-Yl]-7-[2-(4-Methylpiperazin-1-Yl)Ethoxy]Quinolin-4-Amine], less than 1 nM.
Turning to `COC(=O)c1cccc(-c2cc(Nc3ccnc(N)c3)cnn2)c1F` [Example C3, reference compound], the IC50 was found to be 10000 nM.
`OCCN(CCO)CCN1CCN(CCOc2ccc3c(Nc4cnnc(-c5cc(Cl)ccc5F)c4)ccnc3c2)CC1` [Example 75, 2-{[2-(4-{2-[(4-{[6-(5-Chloro-2-Fluorophenyl)Pyridazin-4-Yl]Amino}Quinolin-7-Yl)Oxy]Ethyl}Piperazin-1-Yl)Ethyl](2-Hydroxyethyl)Amino}Ethan-1-Ol]: the IC50 is less than 1 nM.
Turning to `CN1CC(NC(=O)c2cc3c(Nc4cnnc(-c5cc(Cl)ccc5F)c4)ccnc3cn2)C1` [Example 23, 4-{[6-(5-Chloro-2-Fluorophenyl)Pyridazin-4-Yl]Amino}-N-(1-Methylazetidin-3-Yl)-1,7-Naphthyridine-6-Carboxamide], the IC50 lay in the range of 5 to 10 nM.
On to `COC(=O)C1CN(CCC(=O)Nc2cc(Nc3cc(-c4cc(Cl)ccc4F)nnc3C)ccn2)CCN1C` (stereo not shown) [Example 94, Methyl 4-{2-[(4-{[6-(5-Chloro-2-Fluorophenyl)-3-Methylpyridazin-4-Yl]Amino}Pyridin-2-Yl)Carbamoyl]Ethyl}-1-Methylpiperazine-2-Carboxylate], for which the IC50 was less than 1 nM.
In the case of `Cc1nnc(-c2cc(Cl)ccc2F)cc1Nc1ccnc(NC(=O)CCN2CCN(CCN)CC2)c1` [Example 76, 3-[4-(2-Aminoethyl)Piperazin-1-Yl]-N-(4-{[6-(5-Chloro-2-Fluorophenyl)-3-Methylpyridazin-4-Yl]Amino}Pyridin-2-Yl)Propanamide], the IC50 was less than 1 nM.
`Cc1nnc(-c2cc(Cl)ccc2F)cc1Nc1ccnc(NC(=O)c2cnn(CCN(C)C)c2)c1` [Example 156, N-(4-{[6-(5-Chloro-2-Fluorophenyl)-3-Methylpyridazin-4-Yl]Amino}Pyridin-2-Yl)-1-[2-(Dimethylamino)Ethyl]-1H-Pyrazole-4-Carboxamide]: the IC50 is less than 1 nM.
For `CN1CCN(CCC(=O)Nc2cc(Nc3cc(-c4cc(Cl)ccc4F)nnc3CO)ccn2)CC1` [Example 174, N-(4-{[6-(5-chloro-2-fluorophenyl)-3-(hydroxymethyl)pyridazin-4-yl]amino}pyridin-2-yl)-3-(4-methylpiperazin-1-yl)propanamide], the IC50 was less than 1 nM.
On the same count and under the same terms, next, `Cc1nnc(-c2cc(Cl)ccc2F)cc1Nc1ccnc(NC(=O)CC2CCN(C)CC2)c1` [Example 157, N-(4-{[6-(5-Chloro-2-Fluorophenyl)-3-Methylpyridazin-4-Yl]Amino}Pyridin-2-Yl)-2-(1-Methylpiperidin-4-Yl)Acetamide]: less than 1 nM; `COC(=O)CC1CNCCN1CCC(=O)Nc1cc(Nc2cc(-c3cc(Cl)ccc3F)nnc2C)ccn1` (stereo not shown) [Example 102, Methyl 2-(1-{2-[(4-{[6-(5-Chloro-2-Fluorophenyl)-3-Methylpyridazin-4-Yl]Amino}Pyridin-2-Yl)Carbamoyl]Ethyl}Piperazin-2-Yl)Acetate]: less than 1 nM.
Consider `Cc1nnc(-c2cc(Cl)ccc2F)cc1Nc1ccnc2[nH]c(C(=O)NCCN3CCN(C)CC3)cc12` [Example 49, 4-{[6-(5-Chloro-2-Fluorophenyl)-3-Methylpyridazin-4-Yl]Amino}-N-[2-(4-Methylpiperazin-1-Yl)Ethyl]-M-Pyrrolo[2,3-b]Pyridine-2-Carboxamide], for which the IC50 was less than 1 nM.
For the compound `Cc1nnc(-c2cc(Cl)ccc2F)cc1Nc1ccnc(NC(=O)CCN2CCN(CCC#N)CC2)c1` [Example 84, N-(4-{[6-(5-Chloro-2-Fluorophenyl)-3-Methylpyridazin-4-Yl]Amino}Pyridin-2-Yl)-3-[4-(2-Cyanoethyl)Piperazin-1-Yl]Propanamide], the IC50 was less than 1 nM.
Take `Cc1nnc(-c2cc(Cl)ccc2F)cc1Nc1ccnc(NC(=O)CCN2CCN(CC(F)(F)F)CC2)c1` [Example 124, N-(4-{[6-(5-Chloro-2-Fluorophenyl)-3-Methylpyridazin-4-Yl]Amino}Pyridin-2-Yl)-3-[4-(2,2,2-Trifluoroethyl)Piperazin-1-Yl]Propanamide]: the IC50 was less than 1 nM.
Take `COC(=O)N(C)CCN1CCN(CC(=O)Nc2cc(Nc3cc(-c4cc(Cl)ccc4F)nnc3CO)ccn2)CC1` [Example 175, Methyl N-[2-(4-{[(4-{[6-(5-Chloro-2-Fluorophenyl)-3-(Hydroxymethyl)Pyridazin-4-Yl]Amino}Pyridin-2-Yl)Carbamoyl]Methyl}Piperazin-1-Yl)Ethyl]-N-Methylcarbamate]: the IC50 is less than 1 nM.
Consider `Cc1nnc(-c2cc(Cl)ccc2F)cc1Nc1ccnc(NC(=O)CCN2CCN(C)CC2)c1` [Example 16, N-(4-{[6-(5-chloro-2-fluorophenyl)-3-methylpyridazin-4-yl]amino}pyridin-2-yl)-3-(4-methylpiperazin-1-yl)propanamide], for which the IC50 is less than 1 nM.
Regarding `CN1CCN(C(=O)COc2ccc3c(Nc4cnnc(-c5cc(Cl)ccc5F)c4)ccnc3c2)CC1` [Example 39, 2-[(4-{[6-(5-Chloro-2-Fluorophenyl)Pyridazin-4-Yl]Amino}Quinolin-7-Yl)Oxy]-1-(4-Methylpiperazin-1-Yl)Ethan-1-One], the IC50 is 1 to 5 nM.
For `CS(=O)(=O)N1CCCN(CCC(=O)Nc2cc(Nc3cnnc(-c4cc(Cl)ccc4F)c3)ccn2)C1` [Example 44, N-(4-{[6-(5-Chloro-2-Fluorophenyl)Pyridazin-4-Yl]Amino}Pyridin-2-Yl)-3-(3-Methanesulfonyl-1,3-Diazinan-1-Yl)Propanamide], the IC50 is less than 1 nM.

The IC50 is the concentration that gives 50% inhibition.
